± gives the standard deviation of the averaged measurements.
How the values were obtained:
Assay in all cases: LOEC (log10 uM (lowest observed effect concentration))
[1] = compound: C=CC(=O)OCC(F)(F)C(F)(F)C(F)(F)COC(=O)C=C [1H,1H,5H,5H-Perfluoro-1,5-pentanediol diacrylate]
Method: (§1)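 BioMAP Diversity Plus panel in human primary cell co-cultures, 4 concentrations in duplicate blinded samples. Responses are log10 fold change versus DMSO control, processed with tcpl v2.1.0. A hit is called when responses at any concentration exceed the cutoff (the larger of 3*bmad or log10(1.2)); the lowest observed effect concentration (modl_ga, log10 uM) is reported for hits.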

[2] = compound: O=C(O)C(F)(F)C(F)(F)C(F)(F)C(F)(F)C(F)(F)C(F)(F)C(F)(F)C(F)(F)C(F)(F)C(F)F [11-H-Perfluoroundecanoic acid]
Method: as §1

[3] = compound: O=S(=O)(Cl)C(F)(F)C(F)(F)C(F)(F)C(F)(F)C(F)(F)C(F)(F)C(F)(F)C(F)(F)F [Perfluoro-1-octanesulfonyl chloride]
Method: as §1

[4] = compound: NS(=O)(=O)C(F)(F)C(F)(F)C(F)(F)C(F)(F)C(F)(F)C(F)(F)F [Perfluorohexanesulfonamide]
Method: as §1

[5] = compound: FC(F)(F)C(F)(F)C(F)(F)C(F)(F)C(F)(F)C(F)(F)C(F)(F)I [1-Iodopentadecafluoroheptane]
Method: as §1

[6] = compound: COC(=O)C(F)(F)C(F)(F)OC(F)(C(F)(F)F)C(F)(F)OC(F)=C(F)F [Methyl perfluoro(3-(1-ethenyloxypropan-2-yloxy)propanoate)]
Method: as §1

[7] = compound: O=S(=O)(O)CCC(F)(F)C(F)(F)C(F)(F)C(F)(F)C(F)(F)C(F)(F)F [6:2 Fluorotelomer sulfonic acid]
Method: as §1

Nonafluoropentanamide = compound: NC(=O)C(F)(F)C(F)(F)C(F)(F)C(F)(F)F [Nonafluoropentanamide]
Method: as §1

Row | Test System | LOEC (log10 uM) [1] | LOEC (log10 uM) [2] | LOEC (log10 uM) [3] | LOEC (log10 uM) [4] | other results
1 | BF4T Eotaxin3 down | 1.78 | 0.801 ± 0.71 | 1.78 | – | –
2 | BF4T tPA down | 1.3 | 0.845 | 1.54 ± 0.34 | – | –
3 | 3C Eselectin up | – | – | 1.78 | – | –
4 | SAg Eselectin up | – | – | 1.78 | – | –
5 | LPS VCAM1 down | 1.07 ± 0.32 | 1.78 | – | 1.78 | –
6 | KF3CT MMP9 down | 1.3 | 1.3 | 1.78 | – | –
7 | MyoF CollagenIV up | – | 1.07 ± 0.32 | 1.78 | 1.3 | LOEC (log10 uM) [5]: 0.845
8 | BF4T IL1a down | 1.78 | 1.54 ± 0.34 | 1.78 | – | –
9 | 3C SRB down | 1.3 | 1.78 | 1.78 | 1.78 | –
10 | BE3C IL8 down | 1.3 | – | 1.78 | 1.3 | –
11 | 4H Eotaxin3 down | 0.845 | 1.78 | – | 1.78 | –
12 | IMphg IL1a up | – | – | – | 1.54 ± 0.34 | LOEC (log10 uM) [6]: 0.845
13 | MyoF CollagenI down | 1.3 | 1.3 | – | – | LOEC (log10 uM) [5]: 0.845
14 | BE3C IL1a down | 1.3 | 1.3 | 1.78 | – | –
15 | LPS CD69 down | 1.3 | 1.78 | – | 1.78 | –
16 | LPS PGE2 down | 1.3 | 1.78 | 1.78 | – | –
17 | MyoF VCAM1 down | 0.845 | 1.3 | – | – | LOEC (log10 uM) [5]: 0.573 ± 0.39
18 | BF4T uPA down | 1.78 | 1.78 | 1.78 | – | –
19 | IMphg MCP1 down | 1.3 | 1.78 | – | 1.78 | –
20 | SAg IL8 down | 0.845 | 1.78 | – | 1.78 | –
21 | LPS PGE2 up | – | – | – | 1.54 ± 0.34 | –
22 | LPS IL8 up | – | – | 1.78 | – | LOEC (log10 uM) [7]: 1.54 ± 0.34
23 | 3C Thrombomodulin up | 1.3 | 1.78 | 1.78 | – | –

Row | Test System | LOEC (log10 uM) [1] | LOEC (log10 uM) [2] | LOEC (log10 uM) [3] | LOEC (log10 uM) [4] | other results
24 | BF4T MMP3 up | – | – | – | – | LOEC (log10 uM) [6]: 0.845
25 | BF4T MMP9 down | 1.3 | 1.3 | 1.78 | – | –
26 | IMphg MCSF down | – | – | – | 1.07 ± 0.32 | –
27 | hDFCGF VCAM1 down | 0.301 | 0.801 ± 0.71 | – | – | LOEC (log10 uM) [6]: 0.845
28 | BT Bcell Proliferation up | – | – | 1.78 | – | –
29 | 3C HLADR down | 1.07 ± 0.32 | – | – | 1.78 | –
30 | BF4T MCP1 down | 1.3 | 0.573 ± 0.39 | 1.78 | 1.78 | –
31 | BE3C ICAM1 down | 1.3 | 1.3 | 1.78 | – | –
32 | hDFCGF MCP1 up | – | – | – | 1.78 | –
33 | BE3C ITAC down | 1.78 | 1.3 | 1.78 | – | LOEC (log10 uM) [6]: 0.845
34 | BF4T VCAM1 down | 1.3 | – | – | 1.54 ± 0.34 | –
35 | LPS CD40 down | 0.845 | 1.78 | – | 1.78 | –
36 | MyoF SRB down | 1.3 | 1.3 | – | 1.78 | LOEC (log10 uM) [5]: 0.845
37 | BE3C uPA down | 1.78 | 1.3 | 1.78 | – | –
38 | BF4T PAI1 down | 1.3 | 0.801 ± 0.71 | 1.78 | – | –
39 | hDFCGF MCP1 down | 0.301 | 1.78 | – | – | –
40 | KF3CT MIG down | 1.3 | 1.78 | – | – | –
41 | MyoF ACTA1 down | 0.845 | 1.54 ± 0.34 | – | – | LOEC (log10 uM) [5]: 0.301
42 | SAg PBMCCytotoxicity up | – | – | – | 1.78 | –
43 | SAg CD40 down | 0.845 | 1.78 | – | 1.78 | –
44 | BE3C PAI1 down | – | 1.3 | 1.78 | 1.54 ± 0.34 | –
45 | BE3C MIG down | 1.78 | 1.3 | 1.78 | – | –
46 | BE3C EGFR down | – | 1.3 | 1.78 | – | –

Row | Test System | LOEC (log10 uM) [1] | LOEC (log10 uM) [2] | LOEC (log10 uM) [3] | LOEC (log10 uM) [4] | other results
47 | IMphg CD40 down | 1.3 | – | – | 1.78 | –
48 | BE3C uPAR down | 1.78 | 1.3 | 1.78 | 1.78 | –
49 | IMphg IL8 up | – | – | – | 1.78 | LOEC (log10 uM) [6]: 0.301
50 | SAg Eselectin down | 0.845 | 1.78 | – | 1.78 | –
51 | BE3C MMP1 up | – | – | – | 1.78 | LOEC (log10 uM) [6]: 0.573 ± 0.39
52 | 4H SRB down | 1.3 | 1.78 | – | 1.78 | –
53 | KF3CT PAI1 down | 1.3 | 1.3 | 1.3 | – | –
54 | KF3CT MCP1 down | 1.3 | 1.3 | – | – | –
55 | hDFCGF TIMP2 down | – | – | – | 1.78 | –
56 | MyoF PAI1 down | 1.3 | 1.78 | – | – | –
57 | BF4T SRB down | 1.78 | 1.3 | 1.78 | – | –
58 | IMphg ESelectin down | 1.3 | – | – | 1.78 | –
59 | hDFCGF SRB up | – | – | – | – | LOEC (log10 uM) [6]: 0.301
60 | BF4T Keratin818 down | 1.78 | 1.78 | – | – | –
61 | BE3C tPA down | 1.3 | 1.3 | 1.78 | 1.78 | LOEC (log10 uM) [6]: 0.0731 ± 0.32
62 | BT PBMCCytotoxicity up | – | 1.78 | 1.78 | – | –
63 | BE3C HLADR down | 1.3 | 1.3 | 1.78 | – | –
64 | SAg CD69 down | 0.845 | 1.78 | – | 1.78 | –
65 | BF4T ICAM1 down | 1.07 ± 0.32 | 1.3 | 1.78 | – | –
66 | BE3C SRB down | – | 1.3 | 1.78 | – | –
67 | SAg MCP1 down | 0.845 | 1.78 | – | – | –
68 | 3C Proliferation down | 0.301 | 1.78 | – | 1.78 | –
69 | MyoF MMP1 up | 0.845 | – | – | – | LOEC (log10 uM) [5]: 0.573 ± 0.39

Row | Test System | LOEC (log10 uM) [1] | LOEC (log10 uM) [2] | LOEC (log10 uM) [3] | LOEC (log10 uM) [4] | other results
70 | hDFCGF IP10 down | 0.301 | 0.573 ± 0.39 | – | 1.54 ± 0.34 | LOEC (log10 uM) [6]: 0.845
71 | BE3C IP10 down | 1.54 ± 0.34 | 0.845 | 1.3 | 1.54 ± 0.34 | –
72 | 3C Thrombomodulin down | – | – | – | – | LOEC (log10 uM) (Nonafluoropentanamide): 1.31 ± 0.66
73 | SAg CD38 down | 1.07 ± 0.32 | 1.78 | – | – | –
74 | 3C uPAR down | 1.78 | – | 1.78 | – | –
75 | IMphg IL10 down | 1.3 | 1.78 | 1.78 | 1.78 | –
76 | hDFCGF ITAC down | 0.301 | 0.573 ± 0.39 | – | 1.78 | LOEC (log10 uM) [6]: 0.845
77 | hDFCGF MIG down | 0.301 | 0.573 ± 0.39 | – | – | –
78 | LPS SRB down | 1.3 | 1.78 | – | – | –
79 | IMphg SRB.Mphg down | 1.78 | 1.78 | – | – | –
80 | hDFCGF Proliferation down | 0.301 | 0.845 | – | 1.78 | –
81 | IMphg VCAM1 down | 1.07 ± 0.32 | 1.78 | – | – | –
82 | 3C IL8 up | – | – | 1.78 | – | –
83 | KF3CT IL1a down | 0.573 ± 0.39 | 1.78 | – | – | –
84 | BE3C MMP9 down | 1.3 | 1.07 ± 0.32 | 1.78 | 1.78 | –
85 | KF3CT uPA down | 1.3 | 1.78 | – | – | –
86 | LPS Eselectin down | 1.3 | 1.78 | – | – | –
87 | KF3CT IP10 down | 1.3 | 1.3 | 1.78 | 1.78 | –
88 | IMphg CD69 down | 1.78 | – | – | 1.78 | –
89 | SAg SRB down | 1.3 | 1.78 | 1.78 | – | –
90 | MyoF CollagenIII down | 1.3 | 1.3 | 1.78 | – | LOEC (log10 uM) [5]: 0.845

Reference: the supplement of paper PMC10331698
